These results are taken from patent US20250206722A1, “SMALL MOLECULE INHIBITORS OF TEA DOMAIN FAMILY MEMBERS” (The Scripps Research Institute, priority 2022, published 2025).

The subject of data set [1] is NCI-H226 cells. In words: NCI-H226 proliferation assay (Wuxi AppTec). Format: cell-based. The settings on record: Homo sapiens, 168 h, 7 days, CellTiter-Glo, top dose 10, 3-fold dilution, 9 doses. The procedure, abridged: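 NCI-H226 cells were seeded at 500 cells/well overnight, then treated with compounds in a 9-point, 3-fold dilution from a top dose of 10 μM, with 0.2% DMSO. Plates were incubated 7 days at 37° C, 5% CO2. Viability was read by CellTiter-Glo luminescence, normalized to DMSO (max) and medium-only (min) controls.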

Data set [2] relates to IMR32 cells. In words: IMR32 cytotoxicity assay. Format: cell-based. The settings on record: Homo sapiens, IMR-32, 72 h, 3 days, Cell TiterGlo. (In general: In ATP-based viability assays light output follows the ATP content of the culture.)
For data set [3], the system named is NCI-H226 cells. The experiment in a line: NCI-H226 proliferation assay (in house). It is filed as cell-based. The settings on record: Homo sapiens, 120 h, 5 days, Cell TiterGlo, 20-point 1:2 dilution from 20 μM. The procedure, abridged:
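Cells in RPMI 1640 + 10% FBS, 500 per well, dosed after 24 h with 20-point 1:2 dilutions from 20 μM (final), in triplicate. After 5 days at 37 °C, 5% CO2, viability read by CellTiter-Glo luminescence.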

The test system of data set [4] is transcriptional activity of TEADs. In words: TEAD reporter assay (MCF7 TEAD-LUC reporter cells). Format: cell-based. Particulars: Homo sapiens, 24 hours, BrightGlo luminescence. The method in brief:
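MCF7 TEAD-LUC reporter cells were plated at 5,000/well and after 24 h treated with a 20-point 1:2 series from 20 μM final, in triplicate. Luciferase was read by BrightGlo luminescence after 24 h exposure at 37 °C.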
(A reporter such as luciferase makes a cellular process visible.)

Data set [5] is described as follows: Pharmacokinetic studies in mice. It is filed as in vivo, mouse. The settings on record: for Vd / clearance / half-life: mouse plasma; for Vd / clearance: intravenous 2 mg/kg in 75% PEG 300+25% D5W; for half-life: intravenous 2 mg/kg, oral 10 mg/kg in 75% PEG 300+25% D5W; for bioavailability: plasma, mouse, oral 10 mg/kg vs intravenous 2 mg/kg in 75% PEG 300+25% D5W. Here is the method: Pharmacokinetic Studies in mice: The plasma pharmacokinetic profiles of representative compounds were evaluated in mouse via intravenous (2 mg/kg in 75% PEG 300+25% D5W solution) and oral (10 mg/kg in 75% PEG 300+25% D5W solution) dosing routes.

Molecules are shown by their SMILES.

A word on the IC50: it is the midpoint of a concentration-inhibition curve. The low end stands for inhibition by little substance, the high end for a need for much substance. The Vd is the apparent volume that relates the amount in the body to the concentration in plasma or blood. The low end stands for little distribution into tissue, the high end for wide distribution into tissue. By clearance is commonly meant the rate of elimination divided by the concentration. Lower therefore signals a low capacity for elimination. In general, half-life refers to the time needed for the level to fall by half in the phase considered. `C=CC(=O)N1CCN(c2nccnc2Nc2ccc(C(F)(F)F)cc2)CC1` [Compound 1, 1-(4-(3-((4-(trifluoromethyl)phenyl)amino)pyrazin-2-yl)piperazin-1-yl)prop-2-en-1-one] yielded an IC50 in data set [1] of 0.0143 µM. The compound also registered an IC50 in data set [2] of over 10000 nM. In addition, in data set [3], half-maximal inhibition (IC50) was put at 0.0166 µM. For the same compound, the IC50 in data set [4] amounted to 1.8 nM. Further, in data set [5], the Vd is 7 L/kg, the clearance is 42.2 mL/min/kg, the half-life was 126 min and the bioavailability stood at 94.4%.
Consider `C=CC(=O)N1CCC(c2nccnc2Nc2ccc(C(F)(F)F)cc2)CC1` [Example 26, 1-[4-(3-{[4-(trifluoromethyl)phenyl]amino}pyrazin-2-yl)piperidin-1-yl]prop-2-en-1-one], for which the IC50 in data set [1] was determined as 0.02 µM; in data set [2] it was 10000 nM; in data set [3], 0.009 µM; in data set [4], 2 nM.
Taken in the same sequence, the figures for `C=CC(=O)N1CCN(c2nccnc2Nc2ccc(S(F)(F)(F)(F)F)cc2)CC1` [Example 31, 1-(4-(3-((4-(pentafluoro-16-sulfaneyl)phenyl)amino)pyrazin-2-yl)piperazin-1-yl)prop-2-en-1-one] were 0.018 µM, over 5000 nM, 0.0155 µM and 2.06 nM.
`C=CC(=O)N1CCN(c2nccnc2Nc2ccc(OC(F)(F)F)cc2)CC1` [Example 34, 1-(4-(3-((4-(trifluoromethoxy)phenyl)amino)pyrazin-2-yl)piperazin-1-yl)prop-2-en-1-one]: the IC50 in data set [1] was 0.006 µM; in data set [2] it was over 10000 nM; in data set [3], 0.007 µM; in data set [4], 2 nM.
In data set [1], `C=CC(=O)N1CCN(c2nccnc2Nc2ccc(C(F)(F)F)cn2)CC1` [Example 39, 1-(4-(3-((5-(trifluoromethyl)pyridin-2-yl)amino)pyrazin-2-yl)piperazin-1-yl)prop-2-en-1-one] yielded an IC50 of 0.015 µM. In addition, the IC50 in data set [2] was over 20000 nM. The compound also yielded an IC50 in data set [3] of 0.016 µM. In data set [4], this compound displayed an IC50 of 5 nM. Besides, in data set [5], the distribution volume (Vd) was found to be 1.8 L/kg, the clearance was 39.5 mL/min/kg, the half-life was 30 min and the bioavailability came to 90%.
Consider `C=CC(=O)N1CCN(c2nccnc2Oc2ccc(C(F)(F)F)cn2)CC1` [Example 73, 1-(4-(3-((5-(trifluoromethyl)pyridin-2-yl)oxy)pyrazin-2-yl)piperazin-1-yl)prop-2-en-1-one], for which the half-inhibitory concentration (IC50) in data set [1] was 0.032 µM; in data set [2], over 20000 nM; in data set [3] it was 0.025 µM; in data set [4], 3 nM.
Turning to `C=CC(=O)N1CCC(c2nccnc2Oc2ccc(C(F)(F)F)nc2)CC1` [Example 79, 1-(4-(3-((6-(trifluoromethyl)pyridin-3-yl)oxy)pyrazin-2-yl)piperidin-1-yl)prop-2-en-1-one], the IC50 in data set [1] was found to be 0.028 µM. This compound displayed an IC50 in data set [3] of 0.017 µM. Moreover, the IC50 in data set [4] is 2 nM. In data set [5], the Vd was 1.73 L/kg, the clearance stood at 47.3 mL/min/kg, the half-life was 24 min and the bioavailability was determined as 109%.
For `C=CC(=O)N1CCN(c2nc(C)cnc2Nc2ccc(C(F)(F)F)cc2)CC1` [Example 112, 1-(4-(6-methyl-3-((4-(trifluoromethyl)phenyl)amino)pyrazin-2-yl)piperazin-1-yl)prop-2-en-1-one], the IC50 in data set [1] amounted to 0.009 µM; in data set [2] it was 10000 nM; in data set [3], 0.011 µM; in data set [4], 1.8 nM.
